Experimental data taken from US20110183911A1, “METHOD FOR IMPROVING NEUROTRANSMISSION FAILURE USING A NOVEL AGENT” (JURIDICAL FOUNDATION THE CHEMO-SERO-THERAPEUTIC RESEARCH …, priority 2002, published 2011).
Like-named read-outs stand apart in the source and are kept apart here.

How the values were obtained:
[1] = system: cell culture; test: Toxicity when added to cell culture
[2] = system: NG108-15 cells; test: Activity to accelerate synaptic formation: differentiation of NG108-15 cells, anti-Rab3a immunostaining; type: cell-based, rat; conditions: Selenoprotein P 4.36 μg/mL
Procedure: In order to study the effect of Selenoprotein P on synaptic formation, differentiation to neurons was examined using NG108-15 cells (hybridoma of rat neuroblastoma and rat glioma: ATCC NO. HB-12317) which has widely been used for study of synaptic formation and a receptor. NK108-15 cells were seeded to DME supplemented with 10% fetal calf serum and HAT (hypoxanthine, aminopterin and thymidine) in 35 mm polyornithine-coated dish and incubated at 37° C., 10% CO2. After 1 to 2 days, the culture medium was replaced with DMEM (serum free medium) supplemented with 1% fetal calf serum and HT (hypoxanthine and thymidine) and 0.1 mM dibutyl cyclic AMP (abcAMP) was added to induce differentiation while Selenoprotein P at 4.36 μg/mL was added to the medium followed by culture for 3 days. After culture, the dish attached with a sheet of cells was rinsed twice with phosphate buffered saline (hereinafter referred to as PBS) to wash the culture. Cellular proteins were then fixed with paraformaldehyde adjusted to 4% with PBS. After fixation at room temperature for 30 minutes, the dish was rinsed twice with PBS to remove a fixing solution. […]
The nerve cell bodies had also a number of short neurites. […] A proportion of synapses specifically dyed with the anti-Rab3a antibody was then calculated with Mac SCOPE (manufactured by Mitani Corporation), a software for image analysis for Mackintosh, to measure immunopositive spots. […] Therefore, those spots with R value alone could be extracted with the analysis software and measured. In addition, the number of varicosity with no immunological reaction was measured manually and then a proportion (%) of the number of immunopositive varicosity among a total number of varicosity in the photographed picture was calculated.

[3] = system: cell culture
[4] = system: cultured primary neurons; test: Activation of primary neurons by NO (SNAP): mitochondrial dehydrogenase activity, Cell Counting kit-8; type: cell-based; conditions: mouse primary neurons, 15 hours, fragment 0.26 μM as selenium (FIG. 3)
Excerpt: In order to study the effect of Selenoprotein P on the neurotic activity of NO as synaptic neurotransmitter, cultured primary neurons were subject to the action of an NO generator, S-nitroso-N-acetyl-DL-penicillamine (SNAP, manufactured by DOJINDO LABORATORIES), in the presence of Selenoprotein P to determine as to whether a respiratory capacity of neuronal mitochondria is altered in the presence of Selenoprotein P. For determination of a respiratory capacity of mitochondria, a kit was used that readily measured the dehydrogenase activity in the mitochondrial inner membrane (Cell Counting kit-8, manufactured by DOJINDO LABORATORIES).
Fetus was removed from C57BL/6 mouse of 14-day pregnancy (purchased from Charles River Japan, Inc.). The cerebral cortex from the fetus was treated and dispersed with 0.25% trypsinized EDAT and then cultured in Neurobasal Medium (Gibco BRL.) supplemented with B27 supplement (Gibco ERL.) in 5% CO2 incubator at 37° C. for culture of primary neurons. […] After developing reaction, each 100 μL of the culture supernatant was transferred to a 96-well microtiter plate and then absorption was measured at a wave-length of 450 nm with a microtiter plate reader with a reference wave-length of 650 nm.

[5] = Cell death-inhibitory activity of purified fractions; type: cell-based; conditions: fractions purified from plasma (Preparation 1)
[6] = system: acetylcholine receptors; test: Pilocarpine-induced convulsion in mice (function of acetylcholine receptor); type: in vivo; conditions: ICR male mice
Procedure: In order to study the effect of Selenoprotein P on cholinergic neurons, to mice was administered pilocarpine that agonistically acted on acetylcholine receptors present on junctions (synaptic terminal) between neurons and between neurons and muscle to thereby induce convulsion. Pilocarpine, having a parasympathetic nerve-stimulating activity, will induce clonic convulsion in the limbs leading to systemic convulsion when administered to mice.
Twelve ICR male mice (weighing 30 to 43 g; purchased from CLEA Japan, Inc.) of nine weeks old were divided into two groups (6 animals/group) and tested. One hour before administration of pilocarpine, Selenoprotein P prepared at a concentration of 2.5 mg/mL with saline was administered to mice at 0.5 mg of Selenoprotein P per animal (200 μL) as a test group. For a control group, an equivalent amount of saline was administered intraperitoneally. Pilocarpine (pilocarpine hydrochloride, Wako Pure Chemical Industries, Ltd.) was prepared at 100 mg/mL with saline and administered to mice intraperitoneally at 270 to 320 mg/kg. Immediately after administration, mice were photographed with a digital video for record of experiment. Observation was made for 60 minutes after administration of pilocarpine. Time required for developing systemic convulsion and survival of the animals were taken for criteria of assessment. […]

Molecule | Toxicity [1] | Morphology of differentiated cells (neurites, varicosity) ([2]; 3 days) | Rab3a-dyed particles on neurites (FIG. 1) ([2]; 3 days, anti-Rab3a monoclonal antibody) | Proportion of Rab3a-immunopositive cells ± SD ([2]; differentiation with dibutyl cyclic AMP, culture for 3 days, immunopositive varicosity among total varicosity) [%] | Toxicity [3] | Mitochondrial respiratory capacity of the neurons in the presence of NO generator SNAP ([4]; SNAP 50 μM, Selenoprotein P or sodium selenite 1 μM) | Activity of dehydrogenase of the mitochondrial inner membrane (mitochondrial respiratory capacity), without SNAP ([4]; no SNAP, Selenoprotein P 1 μM) | Cell death-inhibitory activity per proteins [5] | Time for developing systemic convulsion compared to control group ([6]; 0.5 mg Selenoprotein P per animal 1 hour before pilocarpine) | Mortality after challenge with pilocarpine compared to control group (FIG. 2) ([6]; 0.5 mg Selenoprotein P per animal, observation 60 minutes)
N[C@@H](C[Se][Se]C[C@H](N)C(=O)O)C(=O)O [selenocystine] | considerably high toxicity | – | – | – | – | – | – | – | – | –
Selenoprotein P: selenocysteine-containing plasma protein (SEQ ID NO: 1), full-length 64 kDa, purified from human plasma (Preparation 2) | – | complexity in development of neurites as well as much particulate varicosity | a large number of Rab3a-dyed knotty particles on neurites | 66.0 ± 2.75 | no such a high toxicity could be observed | significantly increased | tended to show an increased activity | much lower than that of the fragment thereof | significantly shortened | apparently decreased mortality
